Tested on: MV-4-11 cells
Experiment: Gene expression microarray analysis (Affymetrix PrimeView) and GSEA
Assay type: cell-based, human
Parameters: RFU PODN (11730768_x_at) / Fold change /veh PODN (11730768_x_at) / RFU LINC00158 (11744669_a_at) / Fold change /veh LINC00158 (11744669_a_at) / RFU DUSP10 (11751237_a_at) / Fold change /veh DUSP10 (11751237_a_at) / RFU ID3 (11757404_x_at) / Fold change /veh ID3 (11757404_x_at) / RFU PLEKHG5 (11737974_s_at) / Fold change /veh PLEKHG5 (11737974_s_at) / RFU LRRC4B (11730491_at) / Fold change /veh LRRC4B (11730491_at) / RFU GIMAP4 (11747438_a_at) / Fold change /veh GIMAP4 (11747438_a_at) / RFU KRT8 (11758183_x_at) / Fold change /veh KRT8 (11758183_x_at) / RFU CNN1 (11734310_a_at) / Fold change /veh CNN1 (11734310_a_at) / RFU VPS37D (11726825_at) / Fold change /veh VPS37D (11726825_at) / RFU C10orf10 (11716522_x_at) / Fold change /veh C10orf10 (11716522_x_at) / RFU KIR2DL2 /// KIR2DL4 /// KIR2DL5A /// KIR2DL5B /// KIR2DS1 /// KIR2DS2 /// KIR2DS3 /// KIR2DS4 /// KIR3DL3 /// KIR3DL3 /// KIR3DS1 (11738374_at) / Fold change /veh KIR2DL2 /// KIR2DL4 /// KIR2DL5A /// KIR2DL5B /// KIR2DS1 /// KIR2DS2 /// KIR2DS3 /// KIR2DS4 /// KIR3DL3 /// KIR3DL3 /// KIR3DS1 (11738374_at) / RFU C1QL1 (11718748_at) / Fold change /veh C1QL1 (11718748_at) / RFU TMPRSS4 (11747572_a_at) / Fold change /veh TMPRSS4 (11747572_a_at) / RFU HAMP (11756126_x_at) / Fold change /veh HAMP (11756126_x_at) / RFU RNFT2 (11725882_a_at) / Fold change /veh RNFT2 (11725882_a_at) / RFU NR4A2 (11747474_a_at) / Fold change /veh NR4A2 (11747474_a_at) / RFU ABCC12 (11746883_a_at) / Fold change /veh ABCC12 (11746883_a_at) / RFU TMEM136 (11760407_x_at) / Fold change /veh TMEM136 (11760407_x_at) / RFU CLDN22 /// WWC2 (11732394_at) / Fold change /veh CLDN22 /// WWC2 (11732394_at) / RFU HLA-DPB1 (11760878_x_at) / Fold change /veh HLA-DPB1 (11760878_x_at) / RFU SPINT1 (11716480_a_at) / Fold change /veh SPINT1 (11716480_a_at) / RFU GAP43 (11754022_s_at) / Fold change /veh GAP43 (11754022_s_at) / RFU A4GNT (11735810_at) / Fold change /veh A4GNT (11735810_at) / RFU PRB3 (11715151_x_at) / Fold change /veh PRB3 (11715151_x_at) / RFU TUBB4B (11761932_at) / Fold change /veh TUBB4B (11761932_at) / RFU CAPN14 (11732068_a_at) / Fold change /veh CAPN14 (11732068_a_at) / RFU TMCC2 (11721928_a_at) / Fold change /veh TMCC2 (11721928_a_at) / RFU IRGQ (11745062_a_at) / Fold change /veh IRGQ (11745062_a_at) / RFU FAM174B (11720279_a_at) / Fold change /veh FAM174B (11720279_a_at) / RFU TMPRSS4 (11748680_a_at) / Fold change /veh TMPRSS4 (11748680_a_at) / RFU FAM212B (11763350_a_at) / Fold change /veh FAM212B (11763350_a_at) / RFU PLEKHG5 (11743358_a_at) / Fold change /veh PLEKHG5 (11743358_a_at) / RFU ZSCAN30 (11745921_a_at) / Fold change /veh ZSCAN30 (11745921_a_at) / RFU CMKLR1 (11741424_a_at) / Fold change /veh CMKLR1 (11741424_a_at) / RFU LOC101060620 /// MAPK8IP1 (11723275_at) / Fold change /veh LOC101060620 /// MAPK8IP1 (11723275_at) / RFU SPTSSB (11747773_x_at) / Fold change /veh SPTSSB (11747773_x_at) / RFU PRSS12 (11739890_at) / Fold change /veh PRSS12 (11739890_at) / RFU BIN1 (11741810_x_at) / Fold change /veh BIN1 (11741810_x_at) / RFU WNT11 (11732464_a_at) / Fold change /veh WNT11 (11732464_a_at) / RFU C10orf10 (11716521_a_at) / Fold change /veh C10orf10 (11716521_a_at) / RFU C5orf56 (11738089_at) / Fold change /veh C5orf56 (11738089_at) / RFU CYB561 (11721691_x_at) / Fold change /veh CYB561 (11721691_x_at) / RFU ANKRD19P (11752326_a_at) / Fold change /veh ANKRD19P (11752326_a_at) / RFU OR2T12 /// OR2T33 /// OR2T8 (11738714_s_at) / Fold change /veh OR2T12 /// OR2T33 /// OR2T8 (11738714_s_at) / RFU VCAN (11748164_a_at) / Fold change /veh VCAN (11748164_a_at) / RFU JSRP1 (11732532_at) / Fold change /veh JSRP1 (11732532_at) / RFU KRTAP10-11 (11738290_x_at) / Fold change /veh KRTAP10-11 (11738290_x_at) / RFU MYO3A (11730013_a_at) / Fold change /veh MYO3A (11730013_a_at) / RFU EBF3 (11725865_a_at) / Fold change /veh EBF3 (11725865_a_at) / RFU CAMK2N1 (11719241_x_at) / Fold change /veh CAMK2N1 (11719241_x_at) / RFU C5orf56 (11738088_a_at) / Fold change /veh C5orf56 (11738088_a_at) / RFU OLFML3 (11715873_a_at) / Fold change /veh OLFML3 (11715873_a_at) / RFU LOC100653217 /// NTM (11731650_a_at) / Fold change /veh LOC100653217 /// NTM (11731650_a_at) / RFU MAPK11 (11762145_a_at) / Fold change /veh MAPK11 (11762145_a_at) / RFU FIZ1 (11724087_x_at) / Fold change /veh FIZ1 (11724087_x_at) / RFU OASL (11726364_x_at) / Fold change /veh OASL (11726364_x_at) / RFU SOX15 (11748057_x_at) / Fold change /veh SOX15 (11748057_x_at) / RFU CD79A (11719716_a_at) / Fold change /veh CD79A (11719716_a_at) / RFU HIST1H1D (11736915_at) / Fold change /veh HIST1H1D (11736915_at) / RFU CASKIN2 (11723855_a_at) / Fold change /veh CASKIN2 (11723855_a_at) / RFU LOC730098 (11760151_x_at) / Fold change /veh LOC730098 (11760151_x_at) / RFU OR4N2 (11742367_at) / Fold change /veh OR4N2 (11742367_at) / RFU PRRT2 (11749266_a_at) / Fold change /veh PRRT2 (11749266_a_at) / RFU SNX32 (11753110_a_at) / Fold change /veh SNX32 (11753110_a_at) / RFU CDHR5 (11726645_a_at) / Fold change /veh CDHR5 (11726645_a_at) / RFU RCAN1 (11760418_a_at) / Fold change /veh RCAN1 (11760418_a_at) / RFU FAM167A (11723789_a_at) / Fold change /veh FAM167A (11723789_a_at) / RFU FAM26E (11764081_at) / Fold change /veh FAM26E (11764081_at) / RFU ISYNA1 (11749810_s_at) / Fold change /veh ISYNA1 (11749810_s_at) / RFU ACY1 (11761880_at) / Fold change /veh ACY1 (11761880_at) / RFU 11764098_at / Fold change /veh 11764098_at / RFU SAMD14 (11745864_x_at) / Fold change /veh SAMD14 (11745864_x_at) / RFU NPB (11741838_a_at) / Fold change /veh NPB (11741838_a_at) / RFU TMPRSS6 (11731388_a_at) / Fold change /veh TMPRSS6 (11731388_a_at) / RFU KRTAP10-2 (11738614_at) / Fold change /veh KRTAP10-2 (11738614_at) / RFU ARHGAP8 /// PRR5-ARHGAP8 (11727945_x_at) / Fold change /veh ARHGAP8 /// PRR5-ARHGAP8 (11727945_x_at) / RFU KRTAP5-7 /// NADSYN1 (11734609_at) / Fold change /veh KRTAP5-7 /// NADSYN1 (11734609_at) / RFU RASL12 (11751679_a_at) / Fold change /veh RASL12 (11751679_a_at) / RFU CDKN2B (11736163_a_at) / Fold change /veh CDKN2B (11736163_a_at) / RFU PRF1 (11729649_at) / Fold change /veh PRF1 (11729649_at) / RFU, ZNF638 /// ZNF638-IT1 / Fold change vs veh, ZNF638 /// ZNF638-IT1 / RFU, PANK3 / Fold change vs veh, PANK3 / RFU, SH3YL1 / Fold change vs veh, SH3YL1 / RFU, ZEB2 / Fold change vs veh, ZEB2 / RFU, NRIP1 / Fold change vs veh, NRIP1 / RFU, PTTG1IP / Fold change vs veh, PTTG1IP / RFU, CAPN2 / Fold change vs veh, CAPN2 / RFU, MED14 / Fold change vs veh, MED14 / RFU, SNORA58 / Fold change vs veh, SNORA58 / RFU, C1orf63 / Fold change vs veh, C1orf63 / RFU, LRRFIP1 / Fold change vs veh, LRRFIP1 / RFU, NDUFAF7 / Fold change vs veh, NDUFAF7 / RFU, SLC12A2 / Fold change vs veh, SLC12A2 / RFU, IBTK / Fold change vs veh, IBTK / RFU, ESF1 / Fold change vs veh, ESF1 / Fold change vs veh, TMEM50B / RFU, TAOK1 / Fold change vs veh, TAOK1 / RFU, ACBD3 / Fold change vs veh, ACBD3 / RFU, TMA16 / Fold change vs veh, TMA16 / RFU, RWDD3 / Fold change vs veh, RWDD3 / RFU, BCAT1 / Fold change vs veh, BCAT1 / RFU, EDEM3 / Fold change vs veh, EDEM3 / RFU, TMEM33 / Fold change vs veh, TMEM33 / RFU, WDR75 / Fold change vs veh, WDR75 / RFU, AHCTF1 / Fold change vs veh, AHCTF1 / RFU, TFRC / Fold change vs veh, TFRC / RFU, ZDHHC17 / Fold change vs veh, ZDHHC17 / RFU, NOM1 / Fold change vs veh, NOM1 / RFU, ARL8B / Fold change vs veh, ARL8B / RFU, ZBTB11 / Fold change vs veh, ZBTB11 / RFU, TAMM41 / Fold change vs veh, TAMM41 / RFU, KIAA1704 /// LOC100996395 / Fold change vs veh, KIAA1704 /// LOC100996395 / RFU, ING1 / Fold change vs veh, ING1 / RFU, TRMT61B / Fold change vs veh, TRMT61B / RFU, FUBP3 / Fold change vs veh, FUBP3 / RFU, TP53 / Fold change vs veh, TP53 / RFU, TNKS2 / Fold change vs veh, TNKS2 / RFU, ZFP14 / Fold change vs veh, ZFP14 / RFU, ACTR2 / Fold change vs veh, ACTR2 / RFU, PPP3R1 / Fold change vs veh, PPP3R1 / RFU, PIK3R1 / Fold change vs veh, PIK3R1 / RFU, HNRNPA1 / Fold change vs veh, HNRNPA1 / RFU, RNF170 / Fold change vs veh, RNF170 / RFU, ZNF28 / Fold change vs veh, ZNF28 / RFU, RNGTT / Fold change vs veh, RNGTT / RFU, OGT / Fold change vs veh, OGT / RFU, BRD1 / Fold change vs veh, BRD1 / RFU, MARS / Fold change vs veh, MARS / RFU, ZNF655 / Fold change vs veh, ZNF655 / RFU, FAHD1 / Fold change vs veh, FAHD1 / RFU, BDP1 / Fold change vs veh, BDP1 / RFU, LRRCC1 / Fold change vs veh, LRRCC1 / RFU, ARID1A / Fold change vs veh, ARID1A / RFU, ZNF146 / Fold change vs veh, ZNF146 / RFU, ZNF330 / Fold change vs veh, ZNF330 / RFU, GPN3 / Fold change vs veh, GPN3 / RFU, C9orf123 / Fold change vs veh, C9orf123 / RFU, N4BP2L2 / Fold change vs veh, N4BP2L2 / RFU, ARFIP1 / Fold change vs veh, ARFIP1 / RFU, FAM179B / Fold change vs veh, FAM179B / RFU, BCL10 / Fold change vs veh, BCL10 / RFU, UHRF1BP1L / Fold change vs veh, UHRF1BP1L / RFU, BET1 / Fold change vs veh, BET1 / RFU, CNOT2 / Fold change vs veh, CNOT2 / RFU, ZNF268 / Fold change vs veh, ZNF268 / Fold change vs veh, ZNF507 / RFU, DGCR2 / Fold change vs veh, DGCR2 / RFU, WDSUB1 / Fold change vs veh, WDSUB1 / Fold change vs veh, HSP90B1 /// MIR3652 / RFU, ADSS / Fold change vs veh, ADSS / RFU, GK / Fold change vs veh, GK / RFU, ZNF148 / Fold change vs veh, ZNF148 / RFU, TAF9 / Fold change vs veh, TAF9 / RFU, SLC1A5 / Fold change vs veh, SLC1A5 / RFU, SLMO2 / Fold change vs veh, SLMO2 / RFU, ABCC4 / Fold change vs veh, ABCC4 / RFU, LOC101060439 /// RAP1B / Fold change vs veh, LOC101060439 /// RAP1B / RFU, RFX7 / Fold change vs veh, RFX7 / RFU, GTPBP10 / Fold change vs veh, GTPBP10 / RFU, CNEP1R1 / Fold change vs veh, CNEP1R1 / RFU, BIVM-ERCC5 /// ERCC5 / Fold change vs veh, BIVM-ERCC5 /// ERCC5 / RFU, ILF3 / Fold change vs veh, ILF3 / RFU 11762660_at / Fold change /veh 11762660_at / RFU VCAN (11757783_s_at) / Fold change /veh VCAN (11757783_s_at) / RFU DDX43 (11728927_at) / Fold change /veh DDX43 (11728927_at) / RFU KRT8 (11758188_x_at) / Fold change /veh KRT8 (11758188_x_at) / RFU NKD1 (11759106_at) / Fold change /veh NKD1 (11759106_at) / RFU SRD5A1 (11742802_a_at) / Fold change /veh SRD5A1 (11742802_a_at) / RFU TPSAB1 /// TPSB2 (11721975_s_at) / Fold change /veh TPSAB1 /// TPSB2 (11721975_s_at) / RFU GSTM3 (11746129_a_at) / Fold change /veh GSTM3 (11746129_a_at) / RFU IL23R (11737362_x_at) / Fold change /veh IL23R (11737362_x_at) / RFU TMEM51 (11727254_a_at) / Fold change /veh TMEM51 (11727254_a_at) / RFU PIWIL2 (11732686_x_at) / Fold change /veh PIWIL2 (11732686_x_at) / RFU ORM1 (11744905_x_at) / Fold change /veh ORM1 (11744905_x_at) / RFU CCDC152 (11743942_at) / Fold change /veh CCDC152 (11743942_at) / RFU ECM1 (11717891_a_at) / Fold change /veh ECM1 (11717891_a_at) / RFU IL23R (11748794_a_at) / Fold change /veh IL23R (11748794_a_at) / RFU TNFAIP8L3 (11732012_x_at) / Fold change /veh TNFAIP8L3 (11732012_x_at) / RFU MBOAT4 (11741988_at) / Fold change /veh MBOAT4 (11741988_at) / RFU 11764193_at / Fold change /veh 11764193_at / RFU TMEM53 (11763286_at) / Fold change /veh TMEM53 (11763286_at) / RFU MAGEB2 (11727129_at) / Fold change /veh MAGEB2 (11727129_at) / RFU TMEM200A (11744735_a_at) / Fold change /veh TMEM200A (11744735_a_at) / RFU CCDC152 (11751479_a_at) / Fold change /veh CCDC152 (11751479_a_at) / RFU FAM211A (11726209_a_at) / Fold change /veh FAM211A (11726209_a_at) / RFU RGS16 (11746705_a_at) / Fold change /veh RGS16 (11746705_a_at) / RFU VCAN (11755009_s_at) / Fold change /veh VCAN (11755009_s_at) / RFU RHOB (11743442_s_at) / Fold change /veh RHOB (11743442_s_at) / RFU RGS16 (11720943_a_at) / Fold change /veh RGS16 (11720943_a_at) / RFU RGS16 (11720944_at) / Fold change /veh RGS16 (11720944_at) / RFU, VPS4B / Fold change vs veh, VPS4B / RFU, CREB1 / Fold change vs veh, CREB1 / RFU, DNAJC13 / Fold change vs veh, DNAJC13 / RFU, GNAQ / Fold change vs veh, GNAQ / RFU, CDK5R1 / Fold change vs veh, CDK5R1 / RFU, ZRANB3 / Fold change vs veh, ZRANB3 / RFU, CUL4A / Fold change vs veh, CUL4A / RFU, CCNY / Fold change vs veh, CCNY / RFU, UFL1 / Fold change vs veh, UFL1 / RFU, COG3 / Fold change vs veh, COG3 / RFU, DIAPH2 / Fold change vs veh, DIAPH2 / RFU, SKA2 / Fold change vs veh, SKA2 / RFU, AFF3 / Fold change vs veh, AFF3 / RFU, LMF1 / Fold change vs veh, LMF1 / RFU, IPO11 / Fold change vs veh, IPO11 / RFU, DFFB / Fold change vs veh, DFFB / RFU, FOXP1 / Fold change vs veh, FOXP1 / RFU, CARD8 / Fold change vs veh, CARD8 / RFU, STRN3 / Fold change vs veh, STRN3 / RFU, ADK / Fold change vs veh, ADK / RFU, RASSF2 / Fold change vs veh, RASSF2 / RFU, WIPF1 / Fold change vs veh, WIPF1 / RFU, LARP1B / Fold change vs veh, LARP1B / RFU, RASA1 / Fold change vs veh, RASA1 / RFU, RB1 / Fold change vs veh, RB1 / RFU, PPFIA1 / Fold change vs veh, PPFIA1 / RFU, MAT2A / Fold change vs veh, MAT2A / RFU, CCT5 / Fold change vs veh, CCT5 / RFU, WDR92 / Fold change vs veh, WDR92 / RFU, CUX1 / Fold change vs veh, CUX1 / RFU, TTC7A / Fold change vs veh, TTC7A / RFU, TMEM135 / Fold change vs veh, TMEM135 / RFU, DEPTOR / Fold change vs veh, DEPTOR / RFU, CPM / Fold change vs veh, CPM / RFU, DNAJB6 / Fold change vs veh, DNAJB6 / RFU, CACNA2D3 / Fold change vs veh, CACNA2D3 / RFU, DTX4 / Fold change vs veh, DTX4 / RFU, TFCP2 / Fold change vs veh, TFCP2 / RFU, GMCL1 /// GMCL1P1 / Fold change vs veh, GMCL1 /// GMCL1P1 / RFU, AEBP2 / Fold change vs veh, AEBP2 / RFU, SNHG1 /// SNORD22 /// SNORD25 /// SNORD26 /// SNORD27 /// SNORD28 /// SNORD29 /// SNORD31 / Fold change vs veh, SNHG1 /// SNORD22 /// SNORD25 /// SNORD26 /// SNORD27 /// SNORD28 /// SNORD29 /// SNORD31 / Fold change (Aza/veh), C12orf56 (ProbeSet 11735607_a_at) / Fold change (ACY-1035/veh), C12orf56 (ProbeSet 11735607_a_at) / Fold change (Aza/veh), FGFR1OP (ProbeSet 11751329_s_at) / Fold change (ACY-1035/veh), FGFR1OP (ProbeSet 11751329_s_at) / Fold change (Aza/veh), VPS36 (ProbeSet 11739960_a_at) / Fold change (ACY-1035/veh), VPS36 (ProbeSet 11739960_a_at) / RFU SYPL1 (11715823_x_at) / Fold change /veh SYPL1 (11715823_x_at) / RFU IGFBP7 (11715501_s_at) / Fold change /veh IGFBP7 (11715501_s_at) / RFU REEP3 (11722064_at) / Fold change /veh REEP3 (11722064_at) / RFU IGLL1 (11728026_x_at) / Fold change /veh IGLL1 (11728026_x_at): dose or concentration left out as unconfirmed
Settings: ProbeSet 11721611_a_at; LIST D

## Nc1ccc(-c2cccs2)cc1NC(=O)c1ccc2c(c1)cc(C1CC1)n2CCN1CCOCC1 [ACY-1035]
  RFU, IPO11: 82.15 RFU

Reference: article PMC5218480 (PLoS ONE, 2017)
